Data: paper PMC5306082, “Physiologically based kinetic modeling of the bioactivation of myristicin” (Archives of Toxicology, 2016)
Where two headings read alike, the source gives them in different places.

Experiments:
[1] = Sulfonation of 1′-hydroxymyristicin, male rat liver S9; type: in vitro ADME
Experimental: (§1) The formation of 1′-sulfoxymyristicin was determined using incubations containing male rat liver Sprague–Dawley or pooled gender human liver S9 proteins, PAPS as a cofactor, and GSH, which acts as a scavenger of the reactive carbocation formed due to the unstable nature of the 1′-sulfoxy metabolite in an aqueous environment (van den Berg et al. [2012]; Martati et al. [2011]; Al-Subeihi et al. [2011]). Incubation mixtures containing (final concentrations) 10 mM of GSH, 0.2 mM of PAPS, and 3 mg/ml of S9 proteins in 0.1 M potassium phosphate (pH 8.2) were pre-incubated for 1 min at 37 °C. After the pre-incubation, 1′-hydroxymyristicin dissolved in DMSO was added in final concentrations ranging between 10 and 6000 μM while keeping the final content of DMSO at 1 % (v/v). The reaction was terminated after 360 min of incubation by adding 25 μl (0.25 times the incubation volume) of ice-cold ACN. The formation of the GSH conjugate of 1′-sulfoxymyristicin was linear with time and S9 protein concentrations under the experimental conditions used. Blank incubations were performed in the absence of PAPS. Incubations were performed in triplicate. All samples were centrifuged for 5 min at 16,000×g, and the supernatant was stored at −20 °C until ultra-performance liquid chromatography (UPLC) analysis.
(§2) Quantification of 1′-sulfoxymyristicin was done using UPLC analysis as described for the estimation of 1′-sulfoxysafrole (Martati et al. [2011]). […] The gradient for analysis of the metabolite consisted of a mixture of ACN and ultrapure water containing 0.1 % (v/v) TFA. The flow rate was 0.6 ml/min, starting at 0 % ACN and increasing the percentage of ACN to 20 % over 0.2 min, followed by an increase to 30 % ACN over 4.3 min, then increasing to 100 % over 0.3 min, and keeping it at 100 % for 0.2 min, and finally decreasing to 0 % over 0.2 min and keeping it at 0 % for 0.8 min. Separation and purification of the GSH adduct of 1′-sulfoxymyristicin was performed by collecting the peak of the metabolite from the UPLC column. […]

[2] = Sulfonation of 1′-hydroxymyristicin, human liver S9; type: in vitro ADME
Experimental: as §1, §2

[3] = Microsomal conversion of myristicin, human liver microsomes; type: in vitro ADME
Experimental: (§3) First, it was determined which organs are involved in the biotransformation of myristicin in rat and human. For this purpose, liver, kidney, lung, and small intestine microsomes from male Sprague–Dawley rat and pooled gender human were used. Incubations were performed by adding myristicin to incubation mixtures containing 1 mg/mL of the microsomal protein preparations and 3 mM NADPH in 0.2 M Tris–HCl (pH 7.4). After 1 min of pre-incubation at 37 °C, myristicin (final concentration, 1000 μM) was added from a 100 times concentrated stock solution in DMSO so that the final DMSO content was 1 % (v/v). Incubations were carried out for 30 min after which the reactions were terminated by adding 25 µl (0.25 times the incubation volume) of ice-cold ACN. Samples were centrifuged for 5 min at 13,000×g, and the supernatant was stored at −20 °C until UPLC analysis. As metabolism of myristicin was observed only in incubations with liver microsomes for male rats and pooled gender human, the determination of kinetic constants for the formation of microsomal metabolites was performed only for the liver fractions. Incubations to determine kinetic constants were performed following the conditions described above using final concentrations of myristicin from 25 to 1000 μM for rat and human liver. In all incubations, the final concentration of DMSO, in which myristicin was dissolved, was kept at 1 % (v/v). The formation of different microsomal metabolites was linear with time and microsomal protein concentration under the conditions described. Blank incubations were performed in the absence of the cofactor NADPH. All incubations were performed in triplicate.
(§4) Secondary metabolism of the relevant 1′-hydroxy metabolite of myristicin was taken into account by determining the kinetic constants for its conversion in (a) glucuronidation, (b) sulfation, and (c) oxidation, again under conditions that allowed adequate definition of kinetic constants and with <10 % substrate conversion. Incubation samples were subjected to UPLC analysis that was performed as described previously (Punt et al. [2008]). Identification was achieved by comparing the UV spectra of the formed metabolites to the spectra of the synthesized 1′-hydroxymyristicin and 1′-oxomyristicin reference standards. Quantification of all formed metabolites was done by comparing the peak areas to those of calibration curves of the corresponding reference compounds, determined using UPLC with photodiode array detection (UPLC-PDA). The UPLC system was composed of a Waters (Waters, Milford, MA) Acquity solvent manager, sample manager, and photodiode array detector, equipped with Water Acquity UPLC BEH C18 column.
(§5) The gradient for analysis of microsomal metabolites was performed with 100 % ACN and ultrapure water containing 0.1 % (v/v) TFA. The flow rate was 0.6 ml/min. The gradient started at 10 % ACN, increased to 50 % ACN over 4 min, increased to 80 % over 0.5 min, followed by decrease to 10 % ACN over 0.5 min, and finally kept at 10 % for 1 min.

[4] = Microsomal conversion of myristicin, male rat liver microsomes; type: in vitro ADME
Experimental: as §3, §4, §5

rat urine = tested on: rat urine; parameters: method as in Beyer et al. [2006]; conditions: single oral dose 100 mg/kg bw myristicin, urine over 24 h; ref Beyer et al. [2006]; cited from earlier work
[5] = tested on: Cultured human HepG2 cells; conditions: harvested after 24 h, ref Zhou et al. (2007a), cited from earlier work
[6] = tested on: freshly isolated rat hepatocytes in primary culture; conditions: 10^−6 to 10^−3 M; ref Howes et al. [1990]; cited from earlier work
DNA = conditions: ref Zhou et al. [2007a]; Kobets et al. [2016]; Phillips et al. [1984]; Randerath et al. [1984]; cited from earlier work
[7] = uptake from GI tract, assumed from fast and complete absorption of safrole; ref Punt et al. [2008]; cited from earlier work
[8] = Margin of exposure (MOE) risk assessment; conditions: BMDL10 of safrole
Text: The margin-of-exposure (MOE) concept was applied to assess the possible risks for human health resulting from the daily exposure to myristicin (JECFA [2005]; EFSA [2005]; Barlow et al. [2006]; O’Brien et al. [2006]). The MOE is a dimensionless ratio based on a reference point representing a dose causing a low but measurable cancer incidence in experimental animals (e.g., a BMDL10), which is divided by the estimated daily intake in humans (EFSA [2005]). […] The estimated daily intake of safrole from spice and spice oil in the USA amounts to 0.001 mg/kg bw per day (WHO [2009]).

[9] = Metabolism of myristicin by rat small intestine, lung, kidney microsomes; type: in vitro ADME; conditions: 1000 μM myristicin, 1 mg/mL microsomal protein, NADPH, 30 min
Experimental: as §3, with “The formation of different microsomal metabolites was linear with time and microsomal protein concentration under the conditions described. Blank incubations were performed in the absence of the cofactor NADPH. All incubations were performed in triplicate.” left out

pregnant ICR mice = conditions: single dose of 6 mg myristicin by gastric intubation; ref Randerath et al. [1993]; cited from earlier work
New born mice B6C3F1 = conditions: male, injections on days 1, 8, 15, 22 after birth, ref Phillips et al. (1984), cited from earlier work
[10] = ref EFSA [2012]; Zhou et al. [2007b]; cited from earlier work
male B6C3F1 mice = conditions: total dose 3.75 or 4.75 µmol injected over 22 days, 12 or 18 months; ref Miller et al. [1983]; cited from earlier work
Mouse liver CD-1 = conditions: cited from earlier work; for pmol Adduct/mg DNA: female, livers 24 h after treatment
[11] = Metabolism of myristicin by human small intestine, lung, kidney microsomes; type: in vitro ADME; conditions: 1000 μM myristicin, 1 mg/mL microsomal protein, NADPH, 30 min
Experimental: as §3, with “The formation of different microsomal metabolites was linear with time and microsomal protein concentration under the conditions described. Blank incubations were performed in the absence of the cofactor NADPH. All incubations were performed in triplicate.” left out

rats or mice = conditions: chronic oral exposure to high doses, or male CD-1 mice preweaning; ref Borchert et al. [1973]; Drinkwater et al. [1976]; National Toxicology [2000]; cited from earlier work
experimental animals = conditions: tumor formation; ref van den Berg et al. [2011]; cited from earlier work
[12] = S9 protein yield 143 mg/g liver
[13] = formation of the metabolite from myristicin, NADPH, mean of three ± SD
[14] = formation of the metabolite from myristicin, Vmax/Km × 1000
[15] = from myristicin, scaled Vmax/Km
[16] = 80 mg/kg bw i.p., ref Randerath et al. (1984)
[17] = 400 mg/kg bw i.p., ref Randerath et al. (1984)

## C=CC(OS(=O)(=O)O)c1cc(OC)c2c(c1)OCO2 (stereo not shown) [1′-Sulfoxymyristicin, 1′-sulfoxymyristicin]
[1]; S9, PAPS, GSH trapping
  k, first-order rate constant for product formation: 17.6 × 10^−6 ml/min/mg protein
[1]; [12]
  k Scaled: 0.15 ml/hr/g tissue
[2]; S9, PAPS, GSH trapping
  k, first-order rate constant for product formation: 16.3 × 10^−6 ml/min/mg protein
[2]; [12]
  k Scaled: 0.14 ml/hr/g tissue

## C=CCc1cc(O)c(O)c(OC)c1 [5-Allyl-2,3-dihydroxyanisole, 5-allyl-2,3-dihydroxyanisole]
[3]; [13]
  Vmax: 0.93 ± 0.13 nmol min^−1 (mg microsomal or S9 protein)^−1
[3]; [14]
  In vitro catalytic efficiency: 7.881 μl min^−1 (mg microsomal or S9 protein)^−1
[3]; from myristicin, microsomal protein yield 32 mg/g liver
  Scaled Vmax, in vivo: 1.786 μmol/h/g tissue
[3]; [15]
  In vivo catalytic efficiency: 0.0151 ml/h/g tissue
[4]; [13]
  Vmax: 1.3 ± 0.23 nmol min^−1 (mg microsomal or S9 protein)^−1
[4]; [14]
  In vitro catalytic efficiency: 39.394 μl min^−1 (mg microsomal or S9 protein)^−1
[4]; from myristicin, microsomal protein yield 35 mg/g liver
  Scaled Vmax, in vivo: 2.73 μmol/h/g tissue
[4]; [15]
  In vivo catalytic efficiency: 0.0827 ml/h/g tissue
[4]; male rat liver microsomes
  catalytic efficiency, fold higher than for formation of 3′-hydroxymyristicin: approximately sevenfold
Rat urine
  metabolite in rat urine, percentage of the total dose: 67 % of the total dose

## C=CCc1cc(OC)c2c(c1)OCO2 [Myristicin, 1-allyl-5-methoxy-3,4 methylene-dioxybenzene]
[5]; 50 uM
  pmol Adduct/mg DNA: 0.017 pmol Adduct/mg DNA
[5]; 150 uM
  pmol Adduct/mg DNA: 0.049 pmol Adduct/mg DNA
[5]; 450 uM
  pmol Adduct/mg DNA: 0.165 pmol Adduct/mg DNA
[6]
  cytotoxicity: showed cytotoxicity
DNA
  DNA adduct formation, result: positive results
[7]
  absorption rate constant (ka): 1.0 h⁻¹
[8]; estimated daily intake of myristicin 0.0019 mg/kg bw per day from herbs and spices
  MOE: 1000–2684
[9]
  metabolism of myristicin in small intestine, lung, or kidney microsomes: no detectable metabolism
Pregnant ICR mice
  level of myristicin adducts in fetal liver: 63 % of the total adducts
  level of myristicin adducts in maternal liver: 68 % of the total adducts
New born mice B6C3F1; 36.5 mg/kg bw i.p.
  pmol Adduct/mg DNA: 7.8 pmol Adduct/mg DNA
[10]
  in vitro genotoxicity: mutagenic
Male B6C3F1 mice
  activity for the initiation of hepatic tumors: no detectable activity
Mouse liver CD-1; [16]
  pmol Adduct/mg DNA: 16.8 pmol Adduct/mg DNA
Mouse liver CD-1; [17]
  pmol Adduct/mg DNA: 49.5 pmol Adduct/mg DNA
[11]
  metabolism of myristicin in small intestine, lung, or kidney microsomes: no detectable metabolism

## C=CCc1ccc2c(c1)OCO2 [Safrole, safrole]
[5]; 150 uM
  pmol Adduct/mg DNA: 0.083 pmol Adduct/mg DNA
[5]; 450 uM
  pmol Adduct/mg DNA: 0.102 pmol Adduct/mg DNA
[6]
  cytotoxicity: cytotoxicity
  unscheduled DNA synthesis (UDS): induced unscheduled DNA synthesis (UDS)
Rats or mice
  induction of hepatic tumors: induce hepatic tumors
DNA
  DNA adduct formation, result: positive results
[8]; estimated daily intake of safrole 0.001 mg/kg bw per day from spice and spice oil in the USA
  MOE: 1900–5100
New born mice B6C3F1; 30.8 mg/kg bw i.p.
  pmol Adduct/mg DNA: 17.5 pmol Adduct/mg DNA
Mouse liver CD-1; [16]
  pmol Adduct/mg DNA: 45.9 pmol Adduct/mg DNA
Mouse liver CD-1; [17]
  pmol Adduct/mg DNA: 203.4 pmol Adduct/mg DNA
Mouse liver CD-1; 400 mg/kg bw safrole, liver 140 days after treatment, ref Randerath et al. (1984)
  DNA adduct after 140 days (persistence): After admin. of dose 400 mg/kg bw safrole, livers were taken after 24 h, 28, 58, 98, and 140 days after each treatment, after 140 days adduct was 21 pmol/mg DNA
Mouse liver CD-1; mice, i.p. injection, ref Randerath et al. [1984]
  DNA adduct formation in the liver, times higher for safrole than myristicin: 2.7 times
Experimental animals
  BMDL10: 1.9–5.1 mg/kg bw per day
